Measurements as given in patent publication US12582656B2, “Nucleotide analogues” (R.G.C.C. Holdings AG, priority 2020, dated 2026).

What was measured:
[1] = biological target: SARS-COV-2 polymerase NSP12 (Severe acute respiratory syndrome coronavirus 2, UniProt P0DTD1); experiment: SARS-CoV-2 RNA polymerization assay with RdRp catalytic domain, PAGE gel (FIG. 2); type: biochemical; conditions: rATP split 50:50 with compound, 37° C. for 2 h
Polymerase = experiment: SYBR Green qPCR with modified adenosine analogues added, Ct measured; type: biochemical; conditions: for effect on amplification of the template (qPCR): dose-dependent, efficacy higher for phosphate than hydroxyl at same concentration
Method: In a second set of experiments, the modified adenosine analogues were added in a SYBR Green qPCR mix, and reactions performed using the same template and primers as above. The Ct (Threshold Cycle) parameter was measured for each condition. The Ct is the cycle number at which the fluorescence generated within a reaction crosses the fluorescence threshold. The higher the Ct, the lower the amount of product (or lower expression).
At the same concentration, the efficacy of inhibition of amplification was higher for phosphate than hydroxyl.

[2] = gene 18SrRNA, substance 0.075 mM (Final)
[3] = gene 18SrRNA, substance 0.15 mM (Final)
[4] = gene 18SrRNA, substance 0.3 mM (Final)
[5] = gene ACTB, substance 0.075 mM (Final)
[6] = gene ACTB, substance 0.15 mM (Final)
[7] = gene ACTB, substance 0.3 mM (Final)

SMILES | in vitro replication of the SARS-CoV-2 RNA via the SARS-CoV-2 RNA polymerase [1] | effect on amplification of the template (qPCR) (Polymerase) | Ct Mean (Polymerase; [2]) | Ct Mean (Polymerase; [3]) | Ct Mean (Polymerase; [4]) | Ct Mean (Polymerase; [5]) | Ct Mean (Polymerase; [6]) | Ct Mean (Polymerase; [7])
Nc1ncnc2c1ncn2-c1nc(O)c2ccccc2n1 [Compound A, 2-(6-amino-9H-purin-9-yl)quinazolin-4-ol] | inhibits | decrease of the amplification of the template | 12.88 | 13.43 | 14.84 | 20.08 | 20.55 | 21.14
Nc1ncnc2c1ncn2-c1nc(O)c2ccc(F)cc2n1 [Compound B, 2-(6-amino-9H-purin-9-yl)-7-fluoro-quinazolin-4-ol] | inhibits |  |  |  |  |  |  | 
Nc1ncnc2c1ncn2-c1nc(OP(=O)(O)O)c2ccccc2n1 [Compound C, 2-(6-amino-9H-purin-9-yl)quinazolin-4-yl dihydrogen phosphate] | inhibits | decrease of the amplification of the template | 12.78 | 13.70 | 15.98 | 20.15 | 20.91 | 21.82
Nc1ncnc2c1ncn2C1OC(COP(=O)(O)OP(=O)(O)OP(=O)(O)O)CC1O.[Na] (stereo not drawn) [commercial inhibitor, Cordycepin 5′-triphosphate sodium salt, reference compound] | polymerization blocked |  |  |  |  |  |  | 
